# Source: ChEMBL document CHEMBL5365481, “Design, Synthesis, and Activity Evaluation of Novel Dual-Target Inhibitors with Antifungal and Immunoregulatory Properties” (J Med Chem, 2023)
# The source made the active and inactive calls. No cut-off for these calls is given here.
# How the values were obtained:
# Candida albicans [1] = assay: In vivo antifungal activity against Candida albicans ATCC SC5314 infected in BALB/c mouse assessed as shrinkage in infected region at 10 ug, ip for 14 days in presence of Biphenyl isopropyl ester; type: functional, organism-based; conditions: dose 10.0 µg, time 14.0 day
# Candida albicans [2] = assay: In vivo antifungal activity against Candida albicans ATCC SC5314 infected in BALB/c mouse assessed as decrease in necrotic cell debris in tissue gap at 10 ug, ip for 14 days by GMS staining based microscopy; type: functional, organism-based; conditions: dose 10.0 µg, time 14.0 day
# Candida albicans [3] = assay: Induction of mitochondrial membrane depolarization in Candida albicans ATCC SC5314 assessed as polarized cells at 1 microM/ml incubated for 24 hrs by JC-1 staining based flow cytometry assay (reference value: 0.28 +/- 0.02%); type: functional
# Candida albicans [4] = assay: Antifungal activity against fluconazole-resistant Candida albicans CaR assessed as inhibition of fungal growth incubated for 72 hrs by CLSI based liquid medium microdilution method; type: functional
# Candida tropicalis = assay: Antifungal activity against Candida tropicalis ATCC 1369 assessed as inhibition of fungal growth incubated for 72 hrs by CLSI based liquid medium microdilution method; type: functional
# [5] = Toxicity in BALB/c mouse infected with Candida albicans ATCC SC5314 assessed as morphological changes in heart at 10 ug, ip for 14 days by H and E staining based microscopy; type: organism-based; conditions: in vivo, 336 h, dose 10 µg, time 14 day
# [6] = Toxicity in BALB/c mouse infected with Candida albicans ATCC SC5314 assessed as morphological changes in kidney at 10 ug, ip for 14 days by H and E staining based microscopy; type: organism-based; conditions: in vivo, 336 h, dose 10 µg, time 14 day
# [7] = Toxicity in BALB/c mouse infected with Candida albicans ATCC SC5314 assessed as morphological changes in liver at 10 ug, ip for 14 days by H and E staining based microscopy; type: organism-based; conditions: in vivo, 336 h, dose 10 µg, time 14 day
# [8] = Toxicity in BALB/c mouse infected with Candida albicans ATCC SC5314 assessed as plasma BUN level at 10 ug, ip for 14 days in presence of Biphenyl isopropyl ester; type: organism-based; conditions: in vivo, 336 h, dose 10 µg, time 14 day
# Candida albicans [9] = assay: Induction of mitochondrial membrane depolarization in Candida albicans ATCC SC5314 assessed as normal cells at 1 microM/ml incubated for 24 hrs by JC-1 staining based flow cytometry assay (reference value: 94.4 +/- 1.15%); type: functional
# Candida albicans [10] = assay: Antifungal activity against Candida albicans ATCC SC5314 assessed as inhibition of fungal growth incubated for 72 hrs by CLSI based liquid medium microdilution method; type: functional
# [11] = Toxicity in BALB/c mouse infected with Candida albicans ATCC SC5314 assessed as plasma AST level at 10 ug, ip for 14 days; type: organism-based; conditions: in vivo, 336 h, dose 10 µg, time 14 day
# Candida albicans [12] = assay: Induction of apoptosis in Candida albicans ATCC SC5314 assessed as late apoptotic cells at 1 microM/ml incubated for 48 hrs by Hoechst 33258/PI staining based flow cytometry (Rvb= 0.05 +/- 0.01%); type: functional
# Candida albicans [13] = assay: In vivo antifungal activity against Candida albicans ATCC SC5314 infected in BALB/c mouse assessed as increase in body weight at 10 ug, ip for 14 days; type: functional, organism-based; conditions: dose 10.0 µg, time 14.0 day
# [14] = Toxicity in BALB/c mouse infected with Candida albicans ATCC SC5314 assessed as morphological changes in spleen at 10 ug, ip for 14 days in presence of Biphenyl isopropyl ester by H and E staining based microscopy; type: organism-based; conditions: in vivo, 336 h, dose 10 µg, time 14 day
# Candida albicans [15] = assay: In vivo antifungal activity against Candida albicans ATCC SC5314 infected in BALB/c mouse assessed as decrease in IFN-gamma expression level at 10 ug, ip for 14 days by Western blot analysis; type: functional, organism-based; conditions: dose 10.0 µg, time 14.0 day
# Candida albicans [16] = assay: Antifungal activity against Candida albicans ATCC SC5314 assessed as change in structural stability at 1 microM/ml incubated for 48 hrs by absorbance based assay; type: functional, organism-based
# [17] = Toxicity in BALB/c mouse infected with Candida albicans ATCC SC5314 assessed as morphological changes in heart at 10 ug, ip for 14 days in presence of Biphenyl isopropyl ester by H and E staining based microscopy; type: organism-based; conditions: in vivo, 336 h, dose 10 µg, time 14 day
# [18] = Toxicity in BALB/c mouse infected with Candida albicans ATCC SC5314 assessed as morphological changes in liver at 10 ug, ip for 14 days in presence of Biphenyl isopropyl ester by H and E staining based microscopy; type: organism-based; conditions: in vivo, 336 h, dose 10 µg, time 14 day
# Candida albicans [19] = assay: In vivo antifungal activity against Candida albicans ATCC SC5314 infected in BALB/c mouse assessed as fold increase in CD3+ expression level in T cells at 10 ug, ip for 14 days in presence of Biphenyl isopropyl ester by immunohistochemical analysis; type: functional, T-cell; conditions: dose 10 µg, time 14 day
# Candida albicans [20] = assay: In vivo antifungal activity against Candida albicans ATCC SC5314 infected in BALB/c mouse assessed as disappearance of nuclei aggregation at 10 ug, ip for 14 days by GMS staining based microscopy; type: functional, organism-based; conditions: dose 10.0 µg, time 14.0 day
# [21] = Toxicity in BALB/c mouse infected with Candida albicans ATCC SC5314 assessed as morphological changes in lung at 10 ug, ip for 14 days in presence of Biphenyl isopropyl ester by H and E staining based microscopy; type: organism-based; conditions: in vivo, 336 h, dose 10 µg, time 14 day
# [22] = Toxicity in BALB/c mouse infected with Candida albicans ATCC SC5314 assessed as plasma ALT level at 10 ug, ip for 14 days in presence of Biphenyl isopropyl ester; type: organism-based; conditions: in vivo, 336 h, dose 10 µg, time 14 day
# Candida albicans [23] = assay: In vivo antifungal activity against Candida albicans ATCC SC5314 infected in BALB/c mouse assessed as decrease in IFN-gamma expression level at 10 ug, ip for 14 days in presence of Biphenyl isopropyl ester by immunohistochemical analysis; type: functional, organism-based; conditions: dose 10.0 µg, time 14.0 day
# [24] = biological target: Programmed cell death protein 1/Programmed cell death 1 ligand 1 (Homo sapiens, UniProt Q9NZQ7); assay: Inhibition of PD-1/PD-L1 interaction (unknown origin) incubated for 15 mins by ELISA; type: protein-complex assay
# Programmed cell death protein 1/Programmed cell death 1 ligand 1, sequence (Q15116 whole entry): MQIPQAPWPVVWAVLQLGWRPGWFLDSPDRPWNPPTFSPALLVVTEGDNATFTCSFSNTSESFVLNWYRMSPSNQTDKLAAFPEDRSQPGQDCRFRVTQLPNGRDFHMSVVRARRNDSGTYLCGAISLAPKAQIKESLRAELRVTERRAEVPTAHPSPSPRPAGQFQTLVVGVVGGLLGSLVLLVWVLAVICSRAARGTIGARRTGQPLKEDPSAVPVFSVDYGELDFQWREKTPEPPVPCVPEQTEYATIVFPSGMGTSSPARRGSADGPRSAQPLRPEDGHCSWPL
# Programmed cell death protein 1/Programmed cell death 1 ligand 1, sequence (Q9NZQ7 whole entry): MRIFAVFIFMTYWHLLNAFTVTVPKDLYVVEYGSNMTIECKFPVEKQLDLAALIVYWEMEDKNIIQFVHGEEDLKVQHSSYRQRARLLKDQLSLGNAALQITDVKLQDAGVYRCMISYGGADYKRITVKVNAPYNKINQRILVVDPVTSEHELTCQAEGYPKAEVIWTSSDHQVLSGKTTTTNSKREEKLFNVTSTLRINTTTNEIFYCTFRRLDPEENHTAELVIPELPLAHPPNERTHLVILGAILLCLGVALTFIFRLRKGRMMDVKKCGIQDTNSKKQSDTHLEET
# Candida albicans [25] = assay: In vivo antifungal activity against Candida albicans ATCC SC5314 infected in BALB/c mouse assessed as decrease in PD-L1 expression level at 10 ug, ip for 14 days by immunohistochemical analysis; type: functional, organism-based; conditions: dose 10.0 µg, time 14.0 day
# [26] = biological target: Programmed cell death 1 ligand 1 (Homo sapiens, UniProt Q9NZQ7); assay: Binding affinity to PD-L1 (unknown origin) assessed as dissociation constant by SPR analysis
# Programmed cell death 1 ligand 1, sequence (Q9NZQ7 whole entry): as above
# Candida albicans [27] = assay: In vivo antifungal activity against Candida albicans ATCC SC5314 infected in BALB/c mouse assessed as fold increase in CD3+ expression level in T cells at 10 ug, ip for 14 days by immunohistochemical analysis; type: functional, T-cell; conditions: dose 10 µg, time 14 day
# Candida albicans [28] = assay: In vivo antifungal activity against Candida albicans ATCC SC5314 infected in BALB/c mouse assessed as fold increase in CD8+ expression level in T cells at 10 ug, ip for 14 days by immunohistochemical analysis; type: functional, T-cell
# Cell membrane [29] = assay: Induction of cell membrane integrity disruption in Candida albicans ATCC SC5314 assessed as cell destruction at 1 microM/ml incubated for 96 hrs by TEM analysis; type: subcellular
# Cell membrane [30] = assay: Induction of cell membrane integrity disruption in Candida albicans ATCC SC5314 assessed as accumulation of low density particulate matter at 1 microM/ml incubated for 48 to 72 hrs by TEM analysis; type: subcellular; conditions: time 48-72 hrs
# Cell membrane [31] = assay: Induction of cell membrane integrity disruption in Candida albicans ATCC SC5314 assessed as disappearance of nuclei at 1 microM/ml incubated for 48 to 72 hrs by TEM analysis; type: subcellular; conditions: time 48-72 hrs
Compound,Activity (Candida albicans [2]),Activity (Candida albicans [3]),MIC50 (Candida albicans [4]),MIC50 (Candida tropicalis),Activity [5],Activity [6],Activity [7],Activity (Candida albicans [9]),MIC50 (Candida albicans [10]),Activity [11],Activity (Candida albicans [12]),Activity (Candida albicans [13]),Activity (Candida albicans [15]),Activity (Candida albicans [16]),Activity (Candida albicans [20]),IC50 [24],Activity (Candida albicans [25]),Kd [26],fold change (FC) (Candida albicans [27]),also measured
OC(Cn1cncn1)(Cn1cncn1)c1ccc(F)cc1F [FLUCONAZOLE],Active,0.39%,> 8 µg/mL,0.5 µg/mL,Non-Toxic,Non-Toxic,Non-Toxic,65.4%,0.5 µg/mL,79.7 IU/L,0.07%,Active,Active,Active,Active,,,,,Activity (Candida albicans [1]): Active; Activity [8]: 22.8 nmol/L; Activity [14]: Non-Toxic; Activity [17]: Non-Toxic; Activity [18]: Non-Toxic; fold change (FC) (Candida albicans [19]): 1.46; Activity [21]: Non-Toxic; Activity [22]: 37.2 IU/L; Activity (Candida albicans [23]): Active
CC(C)c1ccc(C(=O)N2CCC(NC(=O)c3nc(-n4ccnc4)c4ccccc4n3)CC2)cc1,Active,0.1%,4 µg/mL,0.25 µg/mL,Non-Toxic,Non-Toxic,Non-Toxic,52.3%,0.25 µg/mL,66.8 IU/L,0.19%,Active,Active,Active,Active,39 nM,Active,60.7 nM,1.46,"fold change (FC) (Candida albicans [28]; dose 10 µg, time 14 day): 1.46"
CC(=O)c1ccc(C(=O)N2CCC(NC(=O)c3nc(-n4cncn4)c4ccccc4n3)CC2)cc1,Active,0.62%,2 µg/mL,0.25 µg/mL,Non-Toxic,Non-Toxic,Non-Toxic,42.6%,0.25 µg/mL,54.9 IU/L,0.07%,Active,Active,Active,Active,17 nM,Active,65.5 nM,1.46,"Activity (Cell membrane [29]): Active; Activity (Cell membrane [30]): Active; Activity (Cell membrane [31]): Active; Activity (Candida albicans [28]; T-cell, dose 10.0 µg, time 14.0 day): Active"
